Experimental data: PMC6616483, “Non-Pungent n-3 Polyunsaturated Fatty Acid (PUFA)-Derived Capsaicin Analogues as Potential Functional Ingredients with Antioxidant and Carbohydrate-Hydrolysing Enzyme Inhibitory Activities” (Antioxidants, 2019)
Several values for one entry are separate records, joined by “and”; a condition that tells them apart may be missing. Equal entries are not always repeated. Where two headings read alike, the source gives them in different places.

Experiments:
[1] = DPPH free radical scavenging assay; settings: means ± S.D. (n = 3); NA: not active at maximum concentration tested; read-out: DPPH Test IC50
Protocol: The DPPH assay was performed according to a previously reported protocol. Absorbance was measured at 517 nm using a UV-Vis spectrophotometer (model V-550, Jasco, Milan, Italy). Ascorbic acid was used as positive control.

ABTS assay = settings: means ± S.D. (n = 3); NA: not active at maximum concentration tested; read-out: ABTS Test IC50
Protocol: The ABTS assay was performed according to a previously reported protocol. Absorbance was measured at 734 nm using a UV-Vis spectrophotometer (model V-550, Jasco, Milan, Italy) Ascorbic acid was used as positive control.

[2] = Ferric reducing ability power (FRAP) test; settings: means ± S.D. (n = 3)
Protocol: The FRAP test was performed following the protocol previously described. Absorbance was measured using a UV-Vis spectrophotometer (model V-550, Jasco, Milan, Italy) at 470 nm. FRAP value was expressed as mM Fe(II)/g. Butylated hydroxytoluene (BHT) was used as a positive control.

α-glucosidase = test: α-Glucosidase inhibitory assay; type: biochemical; settings: for Ki: calculated following the Cheng–Prusoff equation; for IC50 / α-Glucosidase IC50: means ± S.D. (n = 3)
Protocol: The α-glucosidase inhibitory assay was achieved following the procedure previously described. Absorbance was measured at 500 nm using a UV-Vis spectrophotometer (model V-550, Jasco, Milan, Italy). […] Ki value was calculated as previously described.

[3] = β-Carotene bleaching test
Protocol: The β-carotene bleaching test was performed as previously described. The absorbance of the samples, standard, and control was measured using a UV-Vis spectrophotometer (model V-550, Jasco, Milan, Italy) at 470 nm against a blank at t = 0 and successively at 30 and 60 min. Propyl gallate was used as positive control.

β-cells = system: β-cells; parameters: method as in PMID 31022842; settings: cited from earlier work
type 1 diabetic rats = system: type 1 diabetic rats; parameters: method as in PMID 28230360; settings: orally 6 mg/Kg for 28 days; cited from earlier work
healthy human subjects = system: healthy human subjects; parameters: method as in PMID 16612838; settings: oral administration; cited from earlier work
α-amylase = target: T1, α-amylase (Sus scrofa, UniProt P00690); test: α-Amylase inhibitory assay; type: biochemical; settings: means ± S.D. (n = 3)
T1 sequence (P00690 16-511): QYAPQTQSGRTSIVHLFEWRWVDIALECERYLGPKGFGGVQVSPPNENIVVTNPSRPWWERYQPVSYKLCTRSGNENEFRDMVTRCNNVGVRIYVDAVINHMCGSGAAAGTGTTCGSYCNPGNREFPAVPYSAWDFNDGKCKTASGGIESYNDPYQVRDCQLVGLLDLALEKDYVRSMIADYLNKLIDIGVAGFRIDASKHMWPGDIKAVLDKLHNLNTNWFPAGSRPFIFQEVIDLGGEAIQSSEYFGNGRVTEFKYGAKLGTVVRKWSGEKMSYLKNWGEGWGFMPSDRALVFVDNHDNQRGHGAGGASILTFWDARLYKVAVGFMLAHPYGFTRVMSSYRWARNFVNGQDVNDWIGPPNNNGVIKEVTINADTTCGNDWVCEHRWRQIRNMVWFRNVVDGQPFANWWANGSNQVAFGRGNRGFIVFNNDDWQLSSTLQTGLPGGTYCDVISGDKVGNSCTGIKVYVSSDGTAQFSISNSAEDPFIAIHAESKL
Protocol: The α-amylase inhibition assay was accomplished as previously described. Absorbance was measured at 540 nm using a UV-Vis spectrophotometer (model V-550, Jasco, Milan, Italy). […] Ki values were calculated following the Cheng–Prusoff equation [18].

[4] = read-out: β-Carotene Bleaching Test IC50 30 min, 30 min of incubation
[5] = read-out: β-Carotene Bleaching Test IC50 60 min, 60 min of incubation

| Compound | IC50 [1] [µM] | IC50 (ABTS assay) [µM] | FRAP Test [2] | Ki (α-glucosidase) [µM] | IC50 (α-glucosidase) | IC50 [3, 4] [µM] | IC50 [3, 5] [µM] | release of insulin compared to the control (β-cells; 15 min of incubation) | release of insulin compared to the control (β-cells; 120 min of incubation) | intestinal glucose absorption (type 1 diabetic rats) | plasma insulin concentrations after glucose loading (healthy human subjects) | α-Amylase IC50 (α-amylase) | α-Glucosidase IC50 (α-glucosidase) |
| --- | --- | --- | --- | --- | --- | --- | --- | --- | --- | --- | --- | --- | --- |
| O=C1O[C@H]([C@@H](O)CO)C(O)=C1O [Ascorbic acid] | 23 ± 2 | 9.6 ± 0.9 |  |  |  |  |  |  |  |  |  |  |  |
| Cc1cc(C(C)(C)C)c(O)c(C(C)(C)C)c1 [BHT, Butylated hydroxytoluene] |  |  | 63 ± 4 μM Fe(II)/g |  |  |  |  |  |  |  |  |  |  |
| COc1cc(CNC(=O)CCCC/C=C/C(C)C)ccc1O [Capsaicin, capsaicin] | 0.6 | 0.3 | 30 ± 3 μM Fe(II)/g | 1 | 13 ± 1 µM | 10 ± 1 | 11 ± 1 | ineffective | ineffective | inhibited intestinal glucose absorption | did not significantly differ from the control group |  |  |
| CC/C=C\C/C=C\C/C=C\C/C=C\C/C=C\C/C=C\CCC(=O)O [DHA, docosahexaenoic acid] |  |  | 9 ± 1 μM Fe(II)/g | 10 | 268 ± 9 µM | 70 ± 4 | 287 ± 10 | ineffective | ineffective |  |  | No significant carbohydrate-hydrolysing enzymes inhibition | No significant carbohydrate-hydrolysing enzymes inhibition |
| CC/C=C\C/C=C\C/C=C\C/C=C\C/C=C\C/C=C\CCC(=O)NCc1ccc(O)c(OC)c1 [DHVA, N-docosahexaenoyl vanillylamine] | 0.8 | 0.3 | 18 ± 2 μM Fe(II)/g | 2 | 23.9 µM and 24 µM | 46 ± 3 | 56 ± 3 | ineffective | slight decrease |  |  |  |  |
| CC/C=C\C/C=C\C/C=C\C/C=C\C/C=C\CCCC(=O)O [EPA, eicosapentaenoic acid] |  |  | 4.8 ± 0.8 μM Fe(II)/g | 10 | 250 ± 9 µM | 74 ± 5 | 310 ± 10 | ineffective | ineffective |  |  | No significant carbohydrate-hydrolysing enzymes inhibition | No significant carbohydrate-hydrolysing enzymes inhibition |
| CC/C=C\C/C=C\C/C=C\C/C=C\C/C=C\CCCC(=O)NCc1ccc(O)c(OC)c1 [EPVA, N-eicosapentaenoyl vanillylamine] | 1 | 0.2 | 28 ± 2 μM Fe(II)/g | 2 | 23.6 µM and 24 µM | 9 ± 1 | 11 ± 1 | significant increase | significant increase |  |  |  |  |
| CCCOC(=O)c1cc(O)c(O)c(O)c1 [Propyl gallate] |  |  |  |  |  | 0.4 | 0.4 |  |  |  |  |  |  |
| COc1cc(COC(=O)CCCC/C=C/C(C)C)ccc1O [capsiate] |  |  |  |  |  |  |  |  |  | inhibited intestinal glucose absorption |  |  |  |
